According to PubChem BioAssay AID248 (DTP/NCI, 2004):
Several values for one entry are separate records, joined by “and”; a condition that tells them apart may be missing. Equal values may be shown once. Inconclusive results and toxic doses are left out. Rule as the data show it: active = T/C of 150% or more; inactive = T/C below 125%.

System: L1210 leukemia ip in BDF1 mice, survival T/C
Test: NCI In Vivo Anticancer Drug Screen. Data for tumor model L1210 Leukemia (intraperitoneal) in B6D2F1 (BDF1) mice
Conditions: endpoint: mean survival time, higher = longer survival
Procedure, shortened: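 Value reflects the ratio of survival in compound-treated mice to survival in vehicle-treated controls, with both groups carrying the same transplanted tumor.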

[1] = dose: 100.0 mg/kg/injection, schedule: Q01DX009 (ip), vehicle: saline
[2] = dose: 100.0 mg/kg/injection, schedule: Q04DX003 (ip), vehicle: saline with Tween-80
[3] = dose: 200.0 mg/kg/injection, schedule: Q04DX003 (ip), vehicle: saline with Tween-80
[4] = dose: 100.0 mg/kg/injection, schedule: Q01DX001 (ip), vehicle: carboxymethylcellulose (CMC)
[5] = dose: 200.0 mg/kg/injection, schedule: Q01DX001 (ip), vehicle: carboxymethylcellulose (CMC)
[6] = dose: 400.0 mg/kg/injection, schedule: Q01DX001 (ip), vehicle: carboxymethylcellulose (CMC)
[7] = dose: 100.0 mg/kg/injection, schedule: Q01DX001 (ip), vehicle: saline
[8] = dose: 200.0 mg/kg/injection, schedule: Q01DX001 (ip), vehicle: saline
[9] = dose: 400.0 mg/kg/injection, schedule: Q01DX001 (ip), vehicle: saline
[10] = dose: 100.0 mg/kg/injection, schedule: Q04DX003 (ip), vehicle: Klucel (hydroxypropylcellulose) (HPC)
[11] = dose: 200.0 mg/kg/injection, schedule: Q04DX003 (ip), vehicle: Klucel (hydroxypropylcellulose) (HPC)
[12] = dose: 400.0 mg/kg/injection, schedule: Q04DX003 (ip), vehicle: Klucel (hydroxypropylcellulose) (HPC)

Measured: T/C

O=C(CCCC(=O)N/N=C/c1ccc2ccccc2n1)N/N=C\c1ccc2ccccc2n1
inactive: dose: 50.0 mg/kg/injection, schedule: Q01DX001 (ip), vehicle: other 95 % of control | dose: 100.0 mg/kg/injection, schedule: Q01DX001 (ip), vehicle: other 88 % of control | dose: 400.0 mg/kg/injection, schedule: Q01DX001 (ip), vehicle: other 95 % of control

O=S(=O)(O)SCCN1CCCCCCC1
inactive: [1] 95 % of control

CN1CC2([N+](=O)[O-])C=CCC([N+](=O)[O-])(C1)C2 (stereo unspecified)
inactive: dose: 25.0 mg/kg/injection, schedule: Q01DX009 (ip), vehicle: water 98 % of control | dose: 50.0 mg/kg/injection, schedule: Q01DX009 (ip), vehicle: water 102 % of control | dose: 100.0 mg/kg/injection, schedule: Q01DX009 (ip), vehicle: water 104 % of control | dose: 200.0 mg/kg/injection, schedule: Q01DX009 (ip), vehicle: water 103 % of control

CCNC(=O)NCc1ccc(Cl)c(Cl)c1
inactive: dose: 100.0 mg/kg/injection, schedule: Q04DX002 (ip), vehicle: Klucel (hydroxypropylcellulose) (HPC) 105 % of control | dose: 200.0 mg/kg/injection, schedule: Q04DX002 (ip), vehicle: Klucel (hydroxypropylcellulose) (HPC) 99 % of control

O=c1oc2c(Cl)cc(Cl)cc2cc1-c1nc2ccccc2[nH]1
inactive: dose: 100.0 mg/kg/injection, schedule: Q04DX002 (ip), vehicle: saline with Tween-80 100 % of control | dose: 200.0 mg/kg/injection, schedule: Q04DX002 (ip), vehicle: saline with Tween-80 93 % of control | dose: 400.0 mg/kg/injection, schedule: Q04DX002 (ip), vehicle: saline with Tween-80 96 % of control

CC(=O)Nc1onc(C)c1N
inactive: dose: 50.0 mg/kg/injection, schedule: Q01DX009 (ip), vehicle: saline 103 % of control | [1] 98 % of control | dose: 100.0 mg/kg/injection, schedule: Q04DX003 (ip), vehicle: saline 94 % of control | dose: 200.0 mg/kg/injection, schedule: Q01DX009 (ip), vehicle: saline 116 % of control and 88 % of control | dose: 200.0 mg/kg/injection, schedule: Q04DX003 (ip), vehicle: saline 94 % of control | dose: 400.0 mg/kg/injection, schedule: Q04DX003 (ip), vehicle: saline 92 % of control

O=C1c2ccccc2C(=O)N1CN1C(=O)c2ccccc2C1=O
inactive: [2] 88 % of control | [3] 91 % of control

CC1(C)CC(C)(c2ccc(O)cc2)Oc2ccccc21 (stereo unspecified)
inactive: [2] 93 % of control | [3] 89 % of control

O=C1Nc2ccccc2C1=Nc1ccc2[nH]c3ccccc3c2c1
inactive: [4] 91 % of control | [5] 94 % of control | [6] 91 % of control

c1ccc2c(c1)Nc1ccccc1[As]2C1CCCCC1
inactive: dose: 12.5 mg/kg/injection, schedule: Q04DX002 (ip), vehicle: saline with Tween-80 99 % of control | dose: 25.0 mg/kg/injection, schedule: Q04DX002 (ip), vehicle: saline with Tween-80 99 % of control | dose: 50.0 mg/kg/injection, schedule: Q04DX002 (ip), vehicle: saline with Tween-80 101 % of control

O=[N+]([O-])/C=C\c1ccc(/C=C/[N+](=O)[O-])cc1
inactive: dose: 1.5 mg/kg/injection, schedule: Q01DX009 (ip), vehicle: other 95 % of control | dose: 1.5 mg/kg/injection, schedule: Q04DX003 (ip), vehicle: other 101 % of control | dose: 3.0 mg/kg/injection, schedule: Q01DX009 (ip), vehicle: other 93 % of control | dose: 3.0 mg/kg/injection, schedule: Q04DX003 (ip), vehicle: other 101 % of control | dose: 6.0 mg/kg/injection, schedule: Q04DX003 (ip), vehicle: other 98 % of control

O=C(CN1C(=O)CCC1=O)Oc1ccc([N+](=O)[O-])cc1
inactive: [7] 91 % of control | [8] 98 % of control | [9] 102 % of control

Cc1oc2ccc(O)c(N=Nc3cccc([N+](=O)[O-])c3)c2c1C
inactive: [10] 97 % of control | [11] 101 % of control | [12] 109 % of control

O=C1C2C(=C3CCCCC3)C=CC2C1(c1ccccc1)c1ccccc1 (stereo unspecified)
inactive: [10] 101 % of control | [11] 95 % of control | [12] 94 % of control

OC1C2CCN(CC2)C1C(c1ccccc1)c1ccccc1 (stereo unspecified)
inactive: dose: 25.0 mg/kg/injection, schedule: Q04DX003 (ip), vehicle: saline with Tween-80 95 % of control | dose: 50.0 mg/kg/injection, schedule: Q04DX003 (ip), vehicle: saline with Tween-80 98 % of control | [2] 96 % of control and 87 % of control

CCCCO[Si](C)(C)CCl
inactive: dose: 50.0 mg/kg/injection, schedule: Q01DX001 (ip), vehicle: carboxymethylcellulose (CMC) 101 % of control | [4] 101 % of control | [5] 106 % of control | [6] 97 % of control

CC(=O)[O][Hg][c]1cc[c]([Hg][O]C(C)=O)s1
inactive: dose: 3.0 mg/kg/injection, schedule: Q01DX009 (ip), vehicle: Klucel (hydroxypropylcellulose) (HPC) 91 % of control | dose: 6.0 mg/kg/injection, schedule: Q01DX009 (ip), vehicle: Klucel (hydroxypropylcellulose) (HPC) 89 % of control | dose: 12.5 mg/kg/injection, schedule: Q04DX003 (ip), vehicle: Klucel (hydroxypropylcellulose) (HPC) 100 % of control

N#C/C(=C\c1ccncc1)c1csc2ccccc12
inactive: [2] 101 % of control | [3] 100 % of control | dose: 400.0 mg/kg/injection, schedule: Q04DX003 (ip), vehicle: saline with Tween-80 94 % of control

CC(C)(C)CC(C)(C)N(CSc1ccc(Cl)cc1)CSc1ccc(Cl)cc1
inactive: [7] 100 % of control | [8] 93 % of control | [9] 87 % of control

O=C(NCCCl)Nc1cccc2cc3ccccc3cc12
inactive: dose: 100.0 mg/kg/injection, schedule: Q01DX009 (ip), vehicle: Klucel (hydroxypropylcellulose) (HPC) 95 % of control | [10] 96 % of control | dose: 200.0 mg/kg/injection, schedule: Q01DX009 (ip), vehicle: Klucel (hydroxypropylcellulose) (HPC) 103 % of control | [11] 96 % of control | dose: 400.0 mg/kg/injection, schedule: Q01DX009 (ip), vehicle: Klucel (hydroxypropylcellulose) (HPC) 95 % of control | [12] 102 % of control

COc1cc2cc3c4cc(OC)c(OC)cc4cc[n+]3c(/C=C/c3ccc(Cl)cc3)c2cc1OC
inactive: [4] 93 % of control and 99 % of control | dose: 100.0 mg/kg/injection, schedule: Q04DX002 (ip), vehicle: carboxymethylcellulose (CMC) 102 % of control and 103 % of control | dose: 100.0 mg/kg/injection, schedule: Q04DX003 (ip), vehicle: carboxymethylcellulose (CMC) 100 % of control and 103 % of control | [5] 99 % of control and 114 % of control | dose: 200.0 mg/kg/injection, schedule: Q04DX002 (ip), vehicle: carboxymethylcellulose (CMC) 94 % of control and 105 % of control | dose: 200.0 mg/kg/injection, schedule: Q04DX003 (ip), vehicle: carboxymethylcellulose (CMC) 95 % of control and 117 % of control | [6] 94 % of control and 111 % of control | dose: 400.0 mg/kg/injection, schedule: Q04DX002 (ip), vehicle: carboxymethylcellulose (CMC) 102 % of control and 113 % of control | dose: 400.0 mg/kg/injection, schedule: Q04DX003 (ip), vehicle: carboxymethylcellulose (CMC) 100 % of control and 92 % of control

Nc1ccc(/C=C\C2(CCl)OCCO2)cc1
inactive: dose: 50.0 mg/kg/injection, schedule: Q01DX001 (ip), vehicle: saline 100 % of control | [7] 97 % of control | [8] 103 % of control | [9] 94 % of control

O=C(NCCCCC(NC(=O)OCc1ccccc1)C(=O)Nc1ccc(Nc2ccc(NC(=O)C(CCCCNC(=O)OCc3ccccc3)NC(=O)OCc3ccccc3)cc2)cc1)OCc1ccccc1 (stereo unspecified)
inactive: [7] 88 % of control | [8] 92 % of control | [9] 94 % of control

Nc1nc2c(=O)[nH]cnc2n1C1OC(CO)C(O)C1O (stereo unspecified)
inactive: dose: 5.0 mg/kg/injection, schedule: Q01DX001 (ip), vehicle: saline 102 % of control | dose: 10.0 mg/kg/injection, schedule: Q01DX001 (ip), vehicle: saline 104 % of control | dose: 20.0 mg/kg/injection, schedule: Q01DX001 (ip), vehicle: saline 102 % of control

O=c1[nH]c(=O)c2nc[nH]c(=O)c2[nH]1
inactive: dose: 75.0 mg/kg/injection, schedule: Q01DX009 (ip), vehicle: Klucel (hydroxypropylcellulose) (HPC) 98 % of control | [10] 118 % of control | dose: 150.0 mg/kg/injection, schedule: Q01DX009 (ip), vehicle: Klucel (hydroxypropylcellulose) (HPC) 97 % of control | [11] 94 % of control | [12] 100 % of control

Cc1cccc(C(=O)O)c1CC1NCCC2c3ccccc3NC12 (stereo unspecified)
inactive: dose: 75.0 mg/kg/injection, schedule: Q01DX001 (ip), vehicle: saline 98 % of control | dose: 150.0 mg/kg/injection, schedule: Q01DX001 (ip), vehicle: saline 100 % of control
